{"source": "ChEMBL document CHEMBL4190243", "about": "“Natural alkaloids as P-gp inhibitors for multidrug resistance reversal in cancer” (Eur J Med Chem, 2017)", "key": {"Homo sapiens [1]": {"species": "Homo sapiens", "experiment": "Inhibition of P-gp in human SW620/AD300 cells assessed as potentiation of doxorubicin-induced cytotoxicity by measuring fold reduction in doxorubicin IC50", "format": "cell-based"}, "Homo sapiens [2]": {"species": "Homo sapiens", "experiment": "Inhibition of P-gp in human MCF7/DOX cells assessed as potentiation of doxorubicin-induced cytotoxicity by measuring fold reduction in doxorubicin IC50 at 5 uM", "format": "cell-based"}, "K562/A02 [3]": {"tested_on": "K562/A02", "experiment": "Inhibition of P-gp in human K562/A02 cells assessed as potentiation of doxorubicin-induced cytotoxicity by measuring fold reduction in doxorubicin IC50 at 5 uM", "format": "cell-based"}, "Homo sapiens [4]": {"species": "Homo sapiens", "experiment": "Inhibition of P-gp in human KB/VCR cells assessed as potentiation of vincristine-induced cytotoxicity by measuring fold reduction in vincristine IC50 at 5 uM", "format": "cell-based"}, "[5]": {"experiment": "Inhibition of P-gp in human MCF7/DX1 cells assessed as […] Rh123 accumulation after 30 mins by FACS analysis", "format": "cell-based", "settings": "MCF7/DX1, 0.5 h"}, "[6]": {"experiment": "Inhibition of P-gp in human MCF7/DX1 cells assessed as […] [3H]paclitaxel accumulation after 40 mins by scintillation counting method", "format": "cell-based"}, "Homo sapiens [7]": {"species": "Homo sapiens", "experiment": "Inhibition of P-gp in human Caco2 cells assessed as potentiation of doxorubicin-induced cytotoxicity by measuring fold reduction in doxorubicin IC50", "format": "cell-based"}, "Homo sapiens [8]": {"species": "Homo sapiens", "experiment": "Inhibition of P-gp in human CEM/DOX5000 cells assessed as potentiation of doxorubicin-induced cytotoxicity by measuring fold reduction in doxorubicin IC50", "format": "cell-based"}, "[9]": {"experiment": "Inhibition of P-gp in human Caco2 cells assessed as reduction in accumulation of Rh123 preincubated for 30 mins followed by Rh123 addition measured after 90 mins by fluorescence spectrofluorometric method", "format": "cell-based", "settings": "Caco-2"}, "[10]": {"experiment": "Inhibition of P-gp in human Caco2 cells assessed as reduction in accumulation of calcein-AM preincubated for 30 mins followed by Rh123 addition measured after 90 mins by fluorescence spectrofluorometric method", "format": "cell-based", "settings": "Caco-2"}, "Homo sapiens [11]": {"species": "Homo sapiens", "experiment": "Inhibition of P-gp in human A549/DDP cells assessed as potentiation of doxorubicin-induced cytotoxicity by measuring fold reduction in doxorubicin IC50 at 5 uM", "format": "cell-based"}, "Homo sapiens [12]": {"species": "Homo sapiens", "experiment": "Inhibition of P-gp in human K562/DOX cells assessed as potentiation of doxorubicin-induced cytotoxicity by measuring fold reduction in doxorubicin IC50 at 5 uM", "format": "cell-based"}, "Homo sapiens [13]": {"species": "Homo sapiens", "experiment": "Inhibition of P-gp in human A549/DDP cells assessed as potentiation of […]-induced cytotoxicity by measuring fold reduction in doxorubicin IC50 at 5 uM", "format": "cell-based"}, "Homo sapiens [14]": {"species": "Homo sapiens", "experiment": "Inhibition of P-gp in human MCF7/DOX cells assessed as potentiation of doxorubicin-induced cytotoxicity by measuring doxorubicin ED50", "format": "cell-based"}, "Homo sapiens [15]": {"species": "Homo sapiens", "experiment": "Inhibition of P-gp in human MCF7/ADR cells assessed as potentiation of doxorubicin-induced cytotoxicity by measuring fold reduction in doxorubicin IC50 at 50 uM after 0.5 to 4 hrs by fluorometric method", "format": "cell-based"}, "[16]": {"biological_target": "Multidrug resistance-associated protein 1 (Homo sapiens, UniProt P33527)", "sequence (P33527 whole entry)": "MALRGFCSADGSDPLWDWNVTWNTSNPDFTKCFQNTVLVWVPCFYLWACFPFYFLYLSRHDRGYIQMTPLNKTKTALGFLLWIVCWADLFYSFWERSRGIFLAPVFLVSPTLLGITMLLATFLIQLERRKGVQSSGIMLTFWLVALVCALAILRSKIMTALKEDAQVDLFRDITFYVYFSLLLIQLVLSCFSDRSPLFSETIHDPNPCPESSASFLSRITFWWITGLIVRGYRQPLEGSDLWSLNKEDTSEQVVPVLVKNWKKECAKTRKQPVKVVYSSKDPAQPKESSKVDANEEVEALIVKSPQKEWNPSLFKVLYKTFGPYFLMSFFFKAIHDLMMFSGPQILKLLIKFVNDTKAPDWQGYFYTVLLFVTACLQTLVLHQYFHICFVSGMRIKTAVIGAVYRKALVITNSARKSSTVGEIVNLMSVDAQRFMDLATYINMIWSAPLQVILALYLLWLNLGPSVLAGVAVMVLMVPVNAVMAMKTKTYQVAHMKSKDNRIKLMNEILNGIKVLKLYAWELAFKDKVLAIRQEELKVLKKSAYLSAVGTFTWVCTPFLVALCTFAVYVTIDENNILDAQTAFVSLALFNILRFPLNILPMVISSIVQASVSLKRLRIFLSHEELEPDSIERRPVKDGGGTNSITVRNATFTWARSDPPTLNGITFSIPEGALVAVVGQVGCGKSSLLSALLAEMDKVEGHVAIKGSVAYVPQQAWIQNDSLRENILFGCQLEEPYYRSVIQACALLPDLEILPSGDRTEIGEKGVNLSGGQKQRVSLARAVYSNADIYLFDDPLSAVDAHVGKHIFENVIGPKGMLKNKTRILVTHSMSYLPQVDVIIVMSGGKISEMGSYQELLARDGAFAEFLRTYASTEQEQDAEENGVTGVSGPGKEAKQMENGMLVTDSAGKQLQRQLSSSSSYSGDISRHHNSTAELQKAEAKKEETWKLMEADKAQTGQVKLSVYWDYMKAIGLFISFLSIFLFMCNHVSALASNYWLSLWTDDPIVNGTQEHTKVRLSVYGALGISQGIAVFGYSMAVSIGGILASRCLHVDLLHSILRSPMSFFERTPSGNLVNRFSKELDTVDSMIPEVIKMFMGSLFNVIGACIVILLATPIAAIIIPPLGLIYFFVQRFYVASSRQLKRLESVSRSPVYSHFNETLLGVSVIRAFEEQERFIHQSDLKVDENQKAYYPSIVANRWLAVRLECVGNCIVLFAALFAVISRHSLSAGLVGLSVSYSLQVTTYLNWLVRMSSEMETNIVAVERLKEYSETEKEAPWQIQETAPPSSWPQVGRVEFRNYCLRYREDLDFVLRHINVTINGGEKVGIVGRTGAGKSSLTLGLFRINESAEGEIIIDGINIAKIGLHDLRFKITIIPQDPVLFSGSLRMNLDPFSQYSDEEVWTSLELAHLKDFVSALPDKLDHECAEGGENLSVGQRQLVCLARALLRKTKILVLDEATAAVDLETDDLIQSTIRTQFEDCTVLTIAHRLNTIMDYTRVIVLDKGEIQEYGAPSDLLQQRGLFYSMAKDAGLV", "experiment": "Inhibition of MRP1 in human MCF7/ADR cells assessed as potentiation of mitoxantrone-induced cytotoxicity by measuring fold reduction in mitoxantrone IC50 at 50 uM after 0.5 to 4 hrs by fluorometric method", "format": "cell-based"}, "Homo sapiens [17]": {"species": "Homo sapiens", "experiment": "Inhibition of P-gp in human K562/VCR cells assessed as potentiation of doxorubicin-induced cytotoxicity by measuring fold reduction in doxorubicin IC50", "format": "cell-based"}, "[18]": {"experiment": "Cytotoxicity against human KB1 cells", "format": "functional", "settings": "read-out: ED50 (the source's name)"}, "Homo sapiens [19]": {"species": "Homo sapiens", "experiment": "Inhibition of P-gp in human KB/VCR cells assessed as potentiation of vincristine-induced cytotoxicity by measuring fold reduction in vincristine IC50", "format": "cell-based"}, "[20]": {"biological_target": "ATP-dependent translocase ABCB1 (Homo sapiens, UniProt P08183)", "sequence (P08183 whole entry)": "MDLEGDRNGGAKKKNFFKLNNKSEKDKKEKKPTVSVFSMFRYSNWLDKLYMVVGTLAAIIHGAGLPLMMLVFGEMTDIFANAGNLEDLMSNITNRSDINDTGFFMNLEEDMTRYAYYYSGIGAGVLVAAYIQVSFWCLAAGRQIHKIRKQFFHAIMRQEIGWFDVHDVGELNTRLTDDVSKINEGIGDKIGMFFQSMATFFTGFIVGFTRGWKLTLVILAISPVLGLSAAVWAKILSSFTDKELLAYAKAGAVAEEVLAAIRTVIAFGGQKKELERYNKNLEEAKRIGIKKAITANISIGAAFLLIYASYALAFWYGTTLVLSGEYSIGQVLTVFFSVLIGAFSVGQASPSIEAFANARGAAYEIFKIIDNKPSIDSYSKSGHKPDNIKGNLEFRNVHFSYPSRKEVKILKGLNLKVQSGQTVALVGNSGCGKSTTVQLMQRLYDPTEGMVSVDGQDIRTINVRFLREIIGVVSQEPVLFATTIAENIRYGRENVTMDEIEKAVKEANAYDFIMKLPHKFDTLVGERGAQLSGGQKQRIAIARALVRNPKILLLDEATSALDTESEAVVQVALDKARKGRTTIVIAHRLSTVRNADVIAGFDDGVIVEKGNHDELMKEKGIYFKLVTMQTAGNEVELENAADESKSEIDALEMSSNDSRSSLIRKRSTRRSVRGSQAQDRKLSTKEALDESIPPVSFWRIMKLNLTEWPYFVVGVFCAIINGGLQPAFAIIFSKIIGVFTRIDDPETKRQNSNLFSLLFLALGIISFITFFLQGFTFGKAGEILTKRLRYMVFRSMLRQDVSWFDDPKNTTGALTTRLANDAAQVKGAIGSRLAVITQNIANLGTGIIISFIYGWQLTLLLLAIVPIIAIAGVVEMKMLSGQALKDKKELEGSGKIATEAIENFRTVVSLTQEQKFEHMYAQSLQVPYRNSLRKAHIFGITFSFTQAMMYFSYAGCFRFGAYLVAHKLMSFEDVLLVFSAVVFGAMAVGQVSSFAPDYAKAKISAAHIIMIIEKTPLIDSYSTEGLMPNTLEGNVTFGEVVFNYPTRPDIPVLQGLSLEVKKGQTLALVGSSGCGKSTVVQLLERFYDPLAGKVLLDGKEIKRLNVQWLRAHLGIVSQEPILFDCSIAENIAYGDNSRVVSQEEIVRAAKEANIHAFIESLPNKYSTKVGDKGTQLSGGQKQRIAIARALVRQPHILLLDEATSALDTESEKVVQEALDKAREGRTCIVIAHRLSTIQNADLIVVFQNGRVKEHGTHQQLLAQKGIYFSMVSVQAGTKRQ", "experiment": "Inhibition of MDR1 in human KB-C2 cells assessed as potentiation of vincristine-induced cytotoxicity by measuring fold reduction in vincristine IC50", "format": "cell-based"}, "Mus musculus": {"species": "Mus musculus", "experiment": "Inhibition of P-gp in mouse P388/DOX cells assessed as potentiation of doxorubicin-induced cytotoxicity by measuring fold reduction in doxorubicin IC50", "format": "cell-based"}, "Homo sapiens [21]": {"species": "Homo sapiens", "experiment": "Inhibition of P-gp in human HCT116/VM46 cells assessed as potentiation of vinblastine-induced cytotoxicity by measuring fold reduction in vinblastine IC50", "format": "cell-based"}, "Homo sapiens [22]": {"species": "Homo sapiens", "experiment": "Inhibition of P-gp in human CCRF-CEM/VLB100 cells assessed as potentiation of vinblastine-induced cytotoxicity by measuring fold reduction in vinblastine IC50"}, "Homo sapiens [23]": {"species": "Homo sapiens", "experiment": "Inhibition of P-gp in human HCT116/VM46 cells assessed as potentiation of doxorubicin-induced cytotoxicity by measuring fold reduction in doxorubicin IC50", "format": "cell-based"}, "K562/A02 [24]": {"tested_on": "K562/A02", "experiment": "Inhibition of P-gp in human K562/A02 cells assessed as potentiation of doxorubicin-induced cytotoxicity by measuring fold reduction in doxorubicin IC50", "format": "cell-based"}, "Homo sapiens [25]": {"species": "Homo sapiens", "experiment": "Inhibition of P-gp in human A549/PA cells assessed as synergistic cytotoxicity with paclitaxel after 48 hrs by SRB assay", "format": "cell-based"}, "Homo sapiens [26]": {"species": "Homo sapiens", "experiment": "Inhibition of P-gp in human KBV1 cells assessed as potentiation of doxorubicin-induced cytotoxicity by measuring fold reduction in doxorubicin IC50 at 5 uM", "format": "cell-based"}, "Homo sapiens [27]": {"species": "Homo sapiens", "experiment": "Inhibition of P-gp in human KBV1 cells assessed as potentiation of vinblastine-induced cytotoxicity by measuring fold reduction in vinblastine IC50 at 5 uM", "format": "cell-based"}, "Homo sapiens [28]": {"species": "Homo sapiens", "experiment": "Inhibition of P-gp in human KBV1 cells assessed as potentiation of paclitaxel-induced cytotoxicity by measuring fold reduction in paclitaxel IC50 at 5 uM", "format": "cell-based"}}}
{"smiles": "CN1c2ccccc2[C@@]23C[C@H]4C(=O)N5[C@H]6N(C[C@@]7(C)O[C@@H]7C2)c2ccccc2[C@@]6(C)C[C@H]5C(=O)N4[C@H]13", "values": [{"measurement": "fold change (FC)", "setting": "Homo sapiens [1]", "result": 2}]}
{"smiles": "CO[C@@]1(C)N(C/C=C/c2ccccc2)C(=O)C2=C[C@@]3(C(=O)N(C)c4ccccc43)C(=O)N21", "values": [{"measurement": "fold change (FC)", "setting": "Homo sapiens [2]", "result": 42}, {"measurement": "fold change (FC)", "setting": "K562/A02 [3]", "result": 16}, {"measurement": "fold change (FC)", "setting": "Homo sapiens [4]", "result": 10}]}
{"smiles": "C=C[C@H]1CN2CC[C@H]1C[C@@H]2[C@@H](OC(=O)CCCCCCCC(=O)O[C@@H](c1ccnc2ccc(OC)cc12)[C@H]1C[C@@H]2CCN1C[C@@H]2C=C)c1ccnc2ccc(OC)cc12", "values": [{"measurement": "IC50", "setting": "[5]", "result": 1700, "unit": "nM"}, {"measurement": "IC50", "setting": "[6]", "result": 2000, "unit": "nM"}]}
{"smiles": "CN1Cc2c(ccc3c2OCO3)C2C(O)Cc3cc4c(cc3C21)OCO4", "note": "(stereo not drawn) [CHELIDONINE (+)]", "values": [{"measurement": "fold change (FC)", "setting": "Homo sapiens [7]", "result": 6}, {"measurement": "fold change (FC)", "setting": "Homo sapiens [8]", "result": 3}, {"measurement": "IC50", "setting": "[9]", "result": 9000, "unit": "nM"}, {"measurement": "IC50", "setting": "[10]", "result": 11000, "unit": "nM"}]}
{"smiles": "C=CC(C)(C)[C@]12c3ccccc3N(C(C)=O)[C@H]1N1C(=O)[C@@H](C)n3c(nc4ccccc4c3=O)[C@@H]1C2O", "note": "(some centres not stated)", "values": [{"measurement": "fold change (FC)", "setting": "Homo sapiens [11]", "result": 8}, {"measurement": "fold change (FC)", "setting": "Homo sapiens [12]", "result": 5}, {"measurement": "fold change (FC)", "setting": "Homo sapiens [13]", "result": 8}]}
{"smiles": "CC(/C=C/C#C/C=C/C=C(\\C)C(=O)N[C@@H](C)CO)=C\\[C@@H](C)[C@@H](O)/C(C)=C/[C@@H](C)CCc1ccccc1", "values": [{"measurement": "ED50", "setting": "Homo sapiens [14]", "result": 0.2, "unit": "nM"}]}
{"smiles": "COc1cc2c(cc1OC)-c1c(OC)c(OC)cc3c1[C@H](C2)N(C)CC3", "note": "[GLAUCINE]", "values": [{"measurement": "fold change (FC)", "setting": "Homo sapiens [15]", "result": 7}, {"measurement": "fold change (FC)", "setting": "[16]", "result": 22}, {"measurement": "fold change (FC)", "setting": "Homo sapiens [2]", "result": 7}]}
{"smiles": "O=C1CCC[C@@H]2[C@H]3CCCN4CCC[C@@H](CN12)[C@@H]34", "values": [{"measurement": "fold change (FC)", "setting": "Homo sapiens [17]", "result": 2.2}]}
{"smiles": "CC(/C=C/C=C\\C=C\\C=C(/C)C(=O)N[C@@H](C)CO)=C\\[C@@H](C)[C@@H](O)/C(C)=C/[C@@H](C)CCc1ccccc1", "values": [{"measurement": "EC50", "setting": "[18]", "result": 0.03, "unit": "nM"}]}
{"smiles": "CC[C@]12CCCN[C@]13/C(=C\\C(=O)OC)c1ccccc1N3C(=O)CC2", "values": [{"measurement": "fold change (FC)", "setting": "Homo sapiens [19]", "result": 4.7}]}
{"smiles": "COc1cc2c(cc1O)CCN[C@]21CS[C@@H]2c3c(OC(C)=O)c(C)c4c(c3[C@H](COC1=O)N1[C@@H]2[C@H]2c3c(cc(C)c(OC)c3O)C[C@@H]([C@@H]1O)N2C)OCO4", "note": "[TRABECTEDIN]", "values": [{"measurement": "fold change (FC)", "setting": "[20]", "result": 16}]}
{"smiles": "COc1ccc(CCn2cc(-c3ccc(OC)c(OC)c3)c3c4cc(OC)c(OC)cc4oc(=O)c32)cc1OC", "values": [{"measurement": "fold change (FC)", "setting": "Mus musculus", "result": 350}, {"measurement": "fold change (FC)", "setting": "Homo sapiens [21]", "result": 35}, {"measurement": "fold change (FC)", "setting": "Homo sapiens [22]", "result": 6.2}, {"measurement": "fold change (FC)", "setting": "Homo sapiens [23]", "result": 350}]}
{"smiles": "CCCCC(CC(C)=O)n1cnc2c(N)ncnc21", "note": "(configuration not stated)", "values": [{"measurement": "fold change (FC)", "setting": "K562/A02 [24]", "result": "1.5 to 2.7"}]}
{"smiles": "COc1ccc2c3c(c4cc(OC)c(OC)cc4c2c1)C[C@H]1CCCN1C3", "values": [{"measurement": "CI", "setting": "Homo sapiens [25]", "result": 0.45}]}
{"smiles": "CN1[C@@H](CC(=O)c2ccccc2)CCC[C@H]1CC(O)c1ccccc1", "note": "(some centres not stated)", "values": [{"measurement": "fold change (FC)", "setting": "Homo sapiens [7]", "result": 3.5}, {"measurement": "fold change (FC)", "setting": "Homo sapiens [8]", "result": "2.5 to 3"}]}
{"smiles": "CCCC[C@@]12[C@@H]3C[C@H]4[C@H]5[C@H](C)/C(=C6/OC(=O)C(C)=C6OC)O[C@]5(O3)[C@@H]1CCN42", "values": [{"measurement": "fold change (FC)", "setting": "Homo sapiens [26]", "result": "4 to 5"}, {"measurement": "fold change (FC)", "setting": "Homo sapiens [27]", "result": 5}, {"measurement": "fold change (FC)", "setting": "Homo sapiens [28]", "result": 7}]}
